Test results taken from the NIST ThermoML archive (doi:10.1021/je800896m).
Values joined by “and” are separate entries in the source; they are usually repeats but may differ in a detail not shown here. Identical values can stand only once. Numbers after ± are expanded uncertainties.

Conditions: Liquid, Closed cell (Static) method

Row | SMILES | vapor or sublimation pressure (318.34 K) [kPa] | vapor or sublimation pressure (346.96 K) [kPa] | vapor or sublimation pressure (318.35 K) | vapor or sublimation pressure (346.14 K) [kPa] | vapor or sublimation pressure (347.06 K) [kPa] | vapor or sublimation pressure (346.97 K) | vapor or sublimation pressure (347.07 K) [kPa]
1 | CC(C)C [2-methylpropane] | 608.3 ± 2.1 | 1177.5 ± 3.7 | – | – | – | – | –
2 | C/C=C/C [(E)-2-butene] | 423.5 ± 1.6 | – | – | – | 868.5 ± 2.8 | – | –
3 | C1CCSC1 [tetrahydrothiophene] | 7.3 ± 0.8 | – | 6.9 ± 0.8 kPa and 6.7 ± 0.8 kPa | 21.4 ± 0.8 | – | 22.2 ± 0.8 kPa and 22.5 ± 0.8 kPa | 22.2 ± 0.8

Other lines, results leading:

Row | vapor or sublimation pressure (318.34 K) [kPa] | vapor or sublimation pressure (346.96 K) [kPa] | vapor or sublimation pressure (318.35 K) | vapor or sublimation pressure (346.14 K) [kPa] | vapor or sublimation pressure (347.06 K) [kPa] | vapor or sublimation pressure (346.97 K) | vapor or sublimation pressure (347.07 K) [kPa] | SMILES
4 | – | – | 542.1 ± 1.9 kPa | 1054.9 ± 3.4 | – | – | – | C=C(C)C [2-methylpropene]
5 | – | – | 437.5 ± 1.6 kPa | – | – | 881.7 ± 2.8 kPa | – | CCCC [butane]
